Laboratory results: patent US20200046737A1, “METHODS FOR TREATING CANCER, AND COMPOSITIONS THEREFOR” (Notable Labs, Inc., priority 2018, published 2020)

Key:
CD38 [1] = assay: 72-hour ex vivo assay, CD38 upregulation in MDS and AML cancer patient samples; format: cell-based, human; conditions: subset of MDS and AML cancer patient samples
Text: (§1) The ex vivo detection of CD38 upregulation using the 72-hour ex vivo assay was clinically validated by trial sites, which compared CD38 expression on leukemic blasts before enrollment and at the beginning of cycle two on SY-1425.

CD38 [2] = assay: Clinical validation by trial sites, CD38 expression on leukemic blasts of patients on drug; format: in vivo, human; conditions: before enrollment versus beginning of cycle two
Text: as §1

CD15 = assay: Ex vivo flow cytometry priming assay, CD15 surface marker expression on AML patient samples; format: cell-based, human; conditions: FIG. 3, three-day incubation
PD-L1 = assay: Ex vivo flow cytometry priming-tuning assay, PD-L1 expression on AML patient samples; format: cell-based, human; conditions: FIG. 3, three-day incubation
CD126 = assay: Ex vivo flow cytometry priming assay, CD126 surface marker expression on AML patient samples; format: cell-based, human; conditions: AML Patient 3
Description: (§2) 12 primary AML patient samples were assayed for priming response using a High-Throughput Phenotypic Screening Platform. Samples were treated with 70 priming compounds (either FDA approved compounds or compounds in clinical development). […] This process was repeated on bone marrow aspirate and peripheral blood from 3 healthy donors.

CD24 = assay: Ex vivo flow cytometry priming assay, CD24 surface marker expression on AML patient samples; format: cell-based, human; conditions: AML Patient 3
Description: as §2

With `CC1(C)CCC(C)(C)c2cc(NC(=O)c3ccc(C(=O)O)cc3)ccc21` [SY-1425] the “CD38 upregulation after exposure” value (CD38 [1]) was “upregulation” and the “CD38 expression on leukemic blasts” value (CD38 [2]) was “upregulated”.

In the case of `Cc1c(-c2ccc(-c3ccccc3F)cc2)nc2ccc(F)cc2c1C(=O)O` [Brequinar Sodium], the CD15 expression (CD15) is reported as “increase” and the PD-L1 expression (PD-L1) is reported as “increase”.

For `CC1=C(/C=C/C(C)=C/C=C/C(C)=C/C(=O)O)C(C)(C)CCC1` [Tretinoin], the “expression of CD126” value (CD126) was “little effect” and the “expression of CD24” value (CD24) was “little effect”.
